Laboratory results from paper PMC5599593, “A general reaction mechanism for carbapenem hydrolysis by mononuclear and binuclear metallo-β-lactamases” (Nature Communications, 2017).

Tests used:
Type in all cases: biochemical
bi-Zn(II)-NDM-1 [1] = biological target: T1, bi-Zn(II)-NDM-1 (Klebsiella pneumoniae, UniProt C7C422); assay: stopped-flow absorption, single turnover; conditions: 100 mM Hepes pH 7.5, 200 mM NaCl, 300 µM ZnSO4, 6 °C
T1 construct: gene blaNDM-1

bi-Zn(II)-BcII = biological target: T2, bi-Zn(II)-BcII (Bacillus cereus, UniProt P04190); assay: rapid-freeze-quench X-ray absorption spectroscopy; conditions: 10 ms reaction
T2 construct: gene blm; expressed as N-terminal GST fusion, GST removed with thrombin; bi-Zn(II) form

mono-Zn(II)-Sfh-I = biological target: T3, mono-Zn(II)-Sfh-I (Serratia fonticola, UniProt Q9RMI1); assay: stopped-flow absorption (pre-steady state); RFQ Zn K-edge XAS of ES complex; conditions: 50 mM Hepes pH 7, 4 °C
T3 construct: gene sfhI; expressed from pET-26b; anion exchange and size exclusion purification; mono-Zn(II) form

bi-Zn(II)-NDM-1 [2] = biological target: T1, bi-Zn(II)-NDM-1; assay: stopped-flow absorption; conditions: 100 mM Hepes pH 7.5, 200 mM NaCl, 300 µM ZnSO4, 6 °C

T1 sequence (C7C422 27-270 limits assumed): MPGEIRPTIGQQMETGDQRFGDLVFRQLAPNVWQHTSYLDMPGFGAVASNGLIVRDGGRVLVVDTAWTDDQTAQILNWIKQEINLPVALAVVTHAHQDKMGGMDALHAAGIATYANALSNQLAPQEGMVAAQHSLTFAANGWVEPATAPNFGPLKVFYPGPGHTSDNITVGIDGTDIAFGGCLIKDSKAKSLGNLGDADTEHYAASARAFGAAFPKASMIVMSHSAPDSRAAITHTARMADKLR
T3 sequence (Q9RMI1 entry or part of it): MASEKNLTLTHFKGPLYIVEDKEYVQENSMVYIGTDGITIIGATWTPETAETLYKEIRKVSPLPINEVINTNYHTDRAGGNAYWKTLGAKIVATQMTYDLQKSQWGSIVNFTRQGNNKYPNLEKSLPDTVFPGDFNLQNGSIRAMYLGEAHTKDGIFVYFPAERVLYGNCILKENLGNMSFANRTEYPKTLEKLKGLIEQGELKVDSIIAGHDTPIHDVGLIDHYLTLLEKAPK
T2 sequence (P04190 31-257): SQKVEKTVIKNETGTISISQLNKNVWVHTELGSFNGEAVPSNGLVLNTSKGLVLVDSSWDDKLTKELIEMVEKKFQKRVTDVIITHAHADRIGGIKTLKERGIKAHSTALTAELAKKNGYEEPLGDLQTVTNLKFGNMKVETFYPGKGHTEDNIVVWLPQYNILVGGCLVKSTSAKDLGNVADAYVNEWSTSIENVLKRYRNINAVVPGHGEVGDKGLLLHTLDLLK

Structure (SMILES)	stopped-flow absorption, single turnover (bi-Zn(II)-NDM-1 [1])	rapid-freeze-quench X-ray absorption spectroscopy (bi-Zn(II)-BcII)	stopped-flow absorption (pre-steady state); RFQ Zn K-edge XAS of ES complex (mono-Zn(II)-Sfh-I)	stopped-flow absorption (bi-Zn(II)-NDM-1 [2])
C[C@@H](O)[C@H]1C(=O)N2C(C(=O)O)=C(SCCN=CN)C[C@H]12 [imipenem]	Hydrolysis of imipenem by bi-Zn(II)-NDM-1 under single turnover conditions	X-ray absorption spectroscopy to analyse hydrolysis of imipenem by the B1 enzyme bi-Zn(II)-BcII	imipenem hydrolysis by the mono-Zn(II) B2 lactamase Sfh-I	
C[C@@H](O)[C@H]1C(=O)N2C(C(=O)O)=C(S[C@@H]3CN[C@H](C(=O)N(C)C)C3)[C@H](C)[C@H]12 [meropenem]				We also assayed hydrolysis of another carbapenem, meropenem, by bi-Zn(II)-NDM-1
